From patent publication US9446061B2, “Composition containing antibiotics and lysophosphatidylcholine for boosting immunity or treatment of bacterial infections” (priority 2011, dated 2016)

Columns and labels:
[1] = tested on: CPA-CLP sepsis mouse model; experiment: Effects of LPC, LPC isomers, Xigris and DW286aa on mortalities/survivabilities in CPA-CLP sepsis mouse model (SEP009); single i.v. 6 hrs after CLP; type: in vivo
Description: (§1) CPA is well known as an immunosuppressive agent. […] Then, the abdomen was closed following the general procedure.
(§2) Then, body weight and mortality changes were observed.
In the Sham and CLP control groups, 10 ml/kg of only sterile physiological saline was single intravenously dosed.

[2] = tested on: CPA-CLP sepsis mouse model; experiment: Combination effects of LPC and antibiotics (colistin, tobramycin, fusidin) in CPA-CLP sepsis mouse model (SEP013); single i.v. 6 hrs after CLP; type: in vivo, ICR mice; conditions: mpk: LPC 5, DW286aa 5, Colistin 5, Tobra 4, Fusidin 80, LPC + Colistin 5 + 5, LPC + Tobra 5 + 4, LPC + Fusidin 5 + 80
From the text: as §1, §2

[3] = LPC, LPC18:0, LPC18:1, LPA 5 mpk, Xigris 0.4 mpk, DW286aa 10 mpk, 1st CPA treat
[4] = LPC, LPC18:0, LPC18:1, LPA 5 mpk, Xigris 0.4 mpk, DW286aa 10 mpk, 2nd CPA treat
[5] = LPC, LPC18:0, LPC18:1, LPA 5 mpk, Xigris 0.4 mpk, DW286aa 10 mpk, At CLP (day 0)
[6] = LPC, LPC18:0, LPC18:1, LPA 5 mpk, Xigris 0.4 mpk, DW286aa 10 mpk, Day 1
[7] = LPC, LPC18:0, LPC18:1, LPA 5 mpk, Xigris 0.4 mpk, DW286aa 10 mpk, Day 2
[8] = LPC, LPC18:0, LPC18:1, LPA 5 mpk, Xigris 0.4 mpk, DW286aa 10 mpk, Day 3
[9] = LPC, LPC18:0, LPC18:1, LPA 5 mpk, Xigris 0.4 mpk, DW286aa 10 mpk, Day 4
[10] = LPC, LPC18:0, LPC18:1, LPA 5 mpk, Xigris 0.4 mpk, DW286aa 10 mpk, Day 5
[11] = LPC, LPC18:0, LPC18:1, LPA 5 mpk, Xigris 0.4 mpk, DW286aa 10 mpk, Day 6
[12] = LPC, LPC18:0, LPC18:1, LPA 5 mpk, Xigris 0.4 mpk, DW286aa 10 mpk, Day 7
[13] = LPC, LPC18:0, LPC18:1, LPA 5 mpk, Xigris 0.4 mpk, DW286aa 10 mpk, Day 8
[14] = LPC, LPC18:0, LPC18:1, LPA 5 mpk, Xigris 0.4 mpk, DW286aa 10 mpk, Day 9
[15] = LPC, LPC18:0, LPC18:1, LPA 5 mpk, Xigris 0.4 mpk, DW286aa 10 mpk, Day 10
[16] = LPC, LPC18:0, LPC18:1, LPA 5 mpk, Xigris 0.4 mpk, DW286aa 10 mpk, Total
[17] = Xigris 2 mpk, DW286aa 20 mpk, 1st CPA treat
[18] = Xigris 2 mpk, DW286aa 20 mpk, 2nd CPA treat
[19] = Xigris 2 mpk, DW286aa 20 mpk, At CLP (day 0)
[20] = Xigris 2 mpk, DW286aa 20 mpk, Day 1
[21] = Xigris 2 mpk, DW286aa 20 mpk, Day 2
[22] = Xigris 2 mpk, DW286aa 20 mpk, Day 3
[23] = Xigris 2 mpk, DW286aa 20 mpk, Day 4
[24] = Xigris 2 mpk, DW286aa 20 mpk, Day 5
[25] = Xigris 2 mpk, DW286aa 20 mpk, Day 6
[26] = Xigris 2 mpk, DW286aa 20 mpk, Day 7
[27] = Xigris 2 mpk, DW286aa 20 mpk, Day 8
[28] = Xigris 2 mpk, DW286aa 20 mpk, Day 9
[29] = Xigris 2 mpk, DW286aa 20 mpk, Day 10
[30] = Xigris 2 mpk, DW286aa 20 mpk, Total

“1-oleoyl-2-hydroxy-sn-glycero-3-phosphocholine [LPC18:1]” showed a Mortalities [1, 3] of 0, a survivabilities [1, 3] of 100% and a Mortalities [1, 4] of 0. For the same molecule, the survivabilities [1, 4] was 100%, the Mortalities [1, 5] was 0 and the survivabilities [1, 5] was 100%. It also gave a Mortalities [1, 6] of 0, a survivabilities [1, 6] of 100% and a Mortalities [1, 7] of 10. The survivabilities [1, 7] was 0%, the Mortalities [1, 8] was 0 and the survivabilities [1, 8] was 0%. It also gave a Mortalities [1, 9] of 0, a survivabilities [1, 9] of 0% and a Mortalities [1, 10] of 0. The survivabilities [1, 10] was 0%, the Mortalities [1, 11] was 0 and the survivabilities [1, 11] was 0%. For the same molecule, the Mortalities [1, 12] was 0, the survivabilities [1, 12] was 0% and the Mortalities [1, 13] was 0. For the same molecule, the survivabilities [1, 13] was 0%, the Mortalities [1, 14] was 0 and the survivabilities [1, 14] was 0%. For the same molecule, the Mortalities [1, 15] was 0, the survivabilities [1, 15] was 0% and the Mortalities [1, 16] was 10. It also gave a survivabilities [1, 16] of 0%.

`CC(=O)O[C@H]1C[C@@]2(C)[C@@H](C[C@@H](O)[C@H]3[C@@]4(C)CC[C@@H](O)[C@@H](C)[C@@H]4CC[C@@]32C)/C1=C(\CCC=C(C)C)C(=O)O` [Fusidin, fusidic acid] was tested, and the Mortalities ([2]; 1st CPA treat) was 0, the Survivalities ([2]; 1st CPA treat) was 100% and the Mortalities ([2]; 2nd CPA treat) was 0. The Survivalities ([2]; 2nd CPA treat) was 100%, the Mortalities ([2]; At CLP (day 0)) was 0 and the Survivalities ([2]; At CLP (day 0)) was 100%. The Mortalities ([2]; Day 1) was 2, the Survivalities ([2]; Day 1) was 80% and the Mortalities ([2]; Day 2) was 5. The Survivalities ([2]; Day 2) was 30%, the Mortalities ([2]; Day 3) was 1 and the Survivalities ([2]; Day 3) was 20%. It also gave a Mortalities ([2]; Total) of 8 and a Survivalities ([2]; Total) of 20%.

`CCCCCCCCCCCCCCCCCC(=O)OC[C@@H](O)COP(=O)([O-])OCC[N+](C)(C)C` [LPC18:0] gave a Mortalities [1, 3] of 0, a survivabilities [1, 3] of 100% and a Mortalities [1, 4] of 0. It also gave a survivabilities [1, 4] of 100%, a Mortalities [1, 5] of 0 and a survivabilities [1, 5] of 100%. It also gave a Mortalities [1, 6] of 0, a survivabilities [1, 6] of 100% and a Mortalities [1, 7] of 6. It also gave a survivabilities [1, 7] of 40%, a Mortalities [1, 8] of 0 and a survivabilities [1, 8] of 40%. The Mortalities [1, 9] was 1, the survivabilities [1, 9] was 30% and the Mortalities [1, 10] was 1. It also gave a survivabilities [1, 10] of 20%, a Mortalities [1, 11] of 0 and a survivabilities [1, 11] of 20%. For the same molecule, the Mortalities [1, 12] was 1, the survivabilities [1, 12] was 10% and the Mortalities [1, 13] was 1. It also gave a survivabilities [1, 13] of 0%, a Mortalities [1, 14] of 0 and a survivabilities [1, 14] of 0%. The Mortalities [1, 15] was 0, the survivabilities [1, 15] was 0% and the Mortalities [1, 16] was 10. For the same molecule, the survivabilities [1, 16] was 0%.

`NC[C@H]1O[C@H](O[C@H]2[C@H](O)[C@@H](O[C@H]3O[C@H](CO)[C@@H](O)[C@H](N)[C@H]3O)[C@H](N)C[C@@H]2N)[C@H](N)C[C@@H]1O` [Tobra, tobramycin] gave a Mortalities ([2]; 1st CPA treat) of 0, a Survivalities ([2]; 1st CPA treat) of 100% and a Mortalities ([2]; 2nd CPA treat) of 0. It also gave a Survivalities ([2]; 2nd CPA treat) of 100%, a Mortalities ([2]; At CLP (day 0)) of 0 and a Survivalities ([2]; At CLP (day 0)) of 100%. It also gave a Mortalities ([2]; Day 1) of 2, a Survivalities ([2]; Day 1) of 80% and a Mortalities ([2]; Day 2) of 5. For the same molecule, the Survivalities ([2]; Day 2) was 30%, the Mortalities ([2]; Day 3) was 1 and the Survivalities ([2]; Day 3) was 20%. For the same molecule, the Mortalities ([2]; Total) was 8 and the Survivalities ([2]; Total) was 20%.

In the case of colistin, the Mortalities ([2]; 1st CPA treat) was 0, the Survivalities ([2]; 1st CPA treat) was 100% and the Mortalities ([2]; 2nd CPA treat) was 0. The Survivalities ([2]; 2nd CPA treat) was 100%, the Mortalities ([2]; At CLP (day 0)) was 0 and the Survivalities ([2]; At CLP (day 0)) was 100%. For the same molecule, the Mortalities ([2]; Day 1) was 1, the Survivalities ([2]; Day 1) was 90% and the Mortalities ([2]; Day 2) was 5. For the same molecule, the Survivalities ([2]; Day 2) was 40%, the Mortalities ([2]; Day 3) was 2 and the Survivalities ([2]; Day 3) was 20%. It also gave a Mortalities ([2]; Total) of 9 and a Survivalities ([2]; Total) of 20%.

Molecule “drotrecogin alfa (activated) [Xigris, reference compound]” has a Mortalities [1, 3] of 0, a survivabilities [1, 3] of 100% and a Mortalities [1, 4] of 0. It also gave a survivabilities [1, 4] of 100%, a Mortalities [1, 5] of 0 and a survivabilities [1, 5] of 100%. For the same molecule, the Mortalities [1, 6] was 3, the survivabilities [1, 6] was 70% and the Mortalities [1, 7] was 4. For the same molecule, the survivabilities [1, 7] was 30%, the Mortalities [1, 8] was 2 and the survivabilities [1, 8] was 10%. The Mortalities [1, 9] was 0, the survivabilities [1, 9] was 10% and the Mortalities [1, 10] was 0. For the same molecule, the survivabilities [1, 10] was 10%, the Mortalities [1, 11] was 0 and the survivabilities [1, 11] was 10%. The Mortalities [1, 12] was 0, the survivabilities [1, 12] was 10% and the Mortalities [1, 13] was 1. The survivabilities [1, 13] was 0%, the Mortalities [1, 14] was 0 and the survivabilities [1, 14] was 0%. For the same molecule, the Mortalities [1, 15] was 0, the survivabilities [1, 15] was 0% and the Mortalities [1, 16] was 10. The survivabilities [1, 16] was 0%, the Mortalities [1, 17] was 0 and the survivabilities [1, 17] was 100%. It also gave a Mortalities [1, 18] of 0, a survivabilities [1, 18] of 100% and a Mortalities [1, 19] of 0. For the same molecule, the survivabilities [1, 19] was 100%, the Mortalities [1, 20] was 0 and the survivabilities [1, 20] was 100%. For the same molecule, the Mortalities [1, 21] was 5, the survivabilities [1, 21] was 50% and the Mortalities [1, 22] was 1. For the same molecule, the survivabilities [1, 22] was 40%, the Mortalities [1, 23] was 3 and the survivabilities [1, 23] was 10%. For the same molecule, the Mortalities [1, 24] was 0, the survivabilities [1, 24] was 10% and the Mortalities [1, 25] was 0. For the same molecule, the survivabilities [1, 25] was 10%, the Mortalities [1, 26] was 0 and the survivabilities [1, 26] was 10%. It also gave a Mortalities [1, 27] of 1, a survivabilities [1, 27] of 0% and a Mortalities [1, 28] of 0. For the same molecule, the survivabilities [1, 28] was 0%, the Mortalities [1, 29] was 0 and the survivabilities [1, 29] was 0%. The Mortalities [1, 30] was 10 and the survivabilities [1, 30] was 0%.
